This note sets out measurements from patent US10618901B2 (GlaxoSmithKline Intellectual Property Development Limited, priority 2014, dated 2020).

This experiment has as its target T1, LRRK2 Ser935 phosphorylation in SH-SY5Y cells over-expressing recombinant full length LRRK2 (Homo sapiens, UniProt Q5S007).
T1 construct: A BacMam virus expressing full length recombinant LRRK2 was purchased from Invitrogen; host or cells: SH-SY5Y (BacMam transduction)
The experiment can be described thus: Recombinant cellular LRRK2 AlphaScreen assay. In kind it is cell-based. The note with it: read-out: pIC50 in the recombinant cellular LRRK2 alphaScreen assay (converted). The text has this: Recombinant Cellular LRRK2 AlphaScreen Assay
To determine the activity of compounds against LRRK2 kinase activity in cells, the observed LRRK2 kinase-dependent modulation of LRRK2 Ser 935 phosphorylation (Dzamko et al., 2010, Biochem. J. 430: 405-413) was utilized to develop a quantitative 384 well plate-based immunoassay of LRRK2 Ser935 phosphorylation in the human neuroblastoma cell line SH-SY5Y, engineered to over-express recombinant full length LRRK2 protein.
A BacMam virus expressing full length recombinant LRRK2 was purchased from Invitrogen and amplified by inoculation of SF-9 cells at MOI 0.3 for 4-5 days in Sf-900 III SFM medium supplemented with 3% fetal bovine serum. Infected cell cultures were then centrifuged at 2000 g for 20 minutes, viral supernatant titer determined by anti-gp64 plaque assay and stored at 4° C.
Affinity-purified anti-phospho LRRK2 Ser935 sheep polyclonal antibody (Dzamko et al., 2010, Biochem. J. 430: 405-413) was biotinylated by standard methods (PerkinElmer). Anti-LRRK2 rabbit polyclonal antibody was purchased from Novus Biologicals. AlphaScreen Protein A IgG Kit (including acceptor and donor beads) was purchased from Perkin Elmer.
SH-SY5Y cells were grown in DMEM/F12 medium with 10% dialysed fetal bovine serum and harvested by treatment with 0.5% trypsin-EDTA for 5 minutes at 37° C. followed by centrifugation at 1000 rpm for 4 minutes. The cell pellet was resuspended in Opti-MEM reduced serum media (Invitrogen) at 200,000 cells/ml and mixed with the BacMam LRRK2 virus at M01=50. 50 μl cell solutions were then dispensed to each well of a 384-well plate and incubated at 37° C., 5% CO2 for 24 hours.
Serial dilutions of test compounds were prepared in Opti-MEM reduced serum media (Invitrogen) and 5.6 ul transferred from compound plate to cell assay plate to achieve a top final assay concentration of 10 uM. DMSO was used in certain wells as controls. Cells were incubated at 37° C., 5% CO2 for 60 minutes. The medium was then removed and cells lysed by addition of 20 ul cell lysis buffer (Cell Signaling Technology) and incubation at 4° C. for 20 minutes. 10 ul of antibody/acceptor bead mix [(1/1000 biotinylated-pS935 LRRK2 antibody, 1/1000 total-LRRK2 antibody, 1/100 Acceptor beads in AlphaScreen detection buffer (25 mM Hepes (pH 7.4), 0.5% Triton X-100, 1 mg/ml Dextran 500 and 0.1% BSA)] was then added to each well and plates incubated for 2 hours at ambient temperature in the dark. 10 μl of donor beads solution (1/33.3 donor beads in AlphaScreen detection buffer) was then added to each well. Following incubation for a further 2 hours at ambient temperature in the dark, plates were read on an EnVision™ plate reader at emission 520-620 nm with excitation 680 nm. Dose response curve data was based on sigmoidal dose-response model.
A general note: Alpha assays give light when donor and acceptor beads are brought close together.

T1 sequence (Q5S007 whole entry): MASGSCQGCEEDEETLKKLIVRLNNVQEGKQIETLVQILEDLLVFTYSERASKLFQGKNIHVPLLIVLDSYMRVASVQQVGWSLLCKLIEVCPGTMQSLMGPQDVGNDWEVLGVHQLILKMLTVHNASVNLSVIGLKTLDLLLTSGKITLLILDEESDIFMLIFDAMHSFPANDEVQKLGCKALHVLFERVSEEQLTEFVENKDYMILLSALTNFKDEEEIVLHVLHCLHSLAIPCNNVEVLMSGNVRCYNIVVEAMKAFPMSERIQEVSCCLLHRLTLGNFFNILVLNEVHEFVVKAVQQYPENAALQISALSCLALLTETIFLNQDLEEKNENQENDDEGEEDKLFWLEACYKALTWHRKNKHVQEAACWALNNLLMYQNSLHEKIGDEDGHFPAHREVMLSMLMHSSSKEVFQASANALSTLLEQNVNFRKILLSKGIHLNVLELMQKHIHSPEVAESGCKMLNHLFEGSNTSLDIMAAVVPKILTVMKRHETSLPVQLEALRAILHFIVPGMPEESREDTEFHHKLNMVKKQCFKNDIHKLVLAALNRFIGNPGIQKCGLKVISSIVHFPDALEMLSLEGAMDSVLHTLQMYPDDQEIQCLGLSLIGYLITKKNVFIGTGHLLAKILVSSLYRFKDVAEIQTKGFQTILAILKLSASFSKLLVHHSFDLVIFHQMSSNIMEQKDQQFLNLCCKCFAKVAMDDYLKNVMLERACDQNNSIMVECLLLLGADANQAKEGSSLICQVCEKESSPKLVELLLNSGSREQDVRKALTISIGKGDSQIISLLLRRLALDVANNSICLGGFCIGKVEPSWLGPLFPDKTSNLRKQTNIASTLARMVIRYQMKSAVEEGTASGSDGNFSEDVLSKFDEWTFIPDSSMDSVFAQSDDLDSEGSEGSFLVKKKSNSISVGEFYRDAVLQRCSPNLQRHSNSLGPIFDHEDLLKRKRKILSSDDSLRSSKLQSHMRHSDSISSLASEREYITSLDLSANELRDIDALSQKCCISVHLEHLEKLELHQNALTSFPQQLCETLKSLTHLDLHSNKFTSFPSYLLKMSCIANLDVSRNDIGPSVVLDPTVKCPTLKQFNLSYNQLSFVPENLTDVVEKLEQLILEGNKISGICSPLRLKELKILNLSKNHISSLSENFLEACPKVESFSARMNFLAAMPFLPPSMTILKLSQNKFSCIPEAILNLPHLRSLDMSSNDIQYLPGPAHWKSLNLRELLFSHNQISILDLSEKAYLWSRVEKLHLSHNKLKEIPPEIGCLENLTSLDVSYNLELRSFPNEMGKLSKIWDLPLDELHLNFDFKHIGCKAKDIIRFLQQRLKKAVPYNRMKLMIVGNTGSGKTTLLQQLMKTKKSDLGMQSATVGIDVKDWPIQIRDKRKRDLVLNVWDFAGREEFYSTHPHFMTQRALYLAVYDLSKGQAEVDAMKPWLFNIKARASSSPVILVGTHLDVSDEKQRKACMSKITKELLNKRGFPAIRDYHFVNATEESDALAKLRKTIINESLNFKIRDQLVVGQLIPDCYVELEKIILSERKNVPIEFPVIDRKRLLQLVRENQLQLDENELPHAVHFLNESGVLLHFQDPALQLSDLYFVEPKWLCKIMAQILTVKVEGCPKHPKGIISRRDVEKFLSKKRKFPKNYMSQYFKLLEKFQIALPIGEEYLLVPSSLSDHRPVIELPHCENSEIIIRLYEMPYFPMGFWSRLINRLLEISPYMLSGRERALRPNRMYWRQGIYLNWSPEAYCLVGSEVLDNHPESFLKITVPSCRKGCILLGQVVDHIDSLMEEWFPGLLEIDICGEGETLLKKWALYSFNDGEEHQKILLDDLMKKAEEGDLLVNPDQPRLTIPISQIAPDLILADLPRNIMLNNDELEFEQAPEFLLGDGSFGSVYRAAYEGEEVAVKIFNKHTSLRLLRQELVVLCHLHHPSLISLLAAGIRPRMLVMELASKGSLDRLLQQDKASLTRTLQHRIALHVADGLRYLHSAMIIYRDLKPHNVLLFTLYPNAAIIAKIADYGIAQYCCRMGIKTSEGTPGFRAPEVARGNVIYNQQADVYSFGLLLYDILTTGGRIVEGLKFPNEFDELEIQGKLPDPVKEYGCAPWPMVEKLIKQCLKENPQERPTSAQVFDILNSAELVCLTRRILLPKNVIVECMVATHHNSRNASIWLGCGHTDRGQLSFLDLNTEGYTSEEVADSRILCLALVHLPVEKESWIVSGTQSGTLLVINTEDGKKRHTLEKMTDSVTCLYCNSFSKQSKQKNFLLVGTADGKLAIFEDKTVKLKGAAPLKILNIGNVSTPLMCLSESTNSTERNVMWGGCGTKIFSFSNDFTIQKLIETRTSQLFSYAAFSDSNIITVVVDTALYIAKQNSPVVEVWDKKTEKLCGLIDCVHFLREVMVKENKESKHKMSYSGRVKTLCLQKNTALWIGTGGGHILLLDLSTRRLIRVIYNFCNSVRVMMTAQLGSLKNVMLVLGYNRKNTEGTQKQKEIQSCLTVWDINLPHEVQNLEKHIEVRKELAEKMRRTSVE

With `CCOc1nc(Nc2cnn(C3COC3)c2C)nc2[nH]ccc12` [Example E34, 4-ethoxy-N-(5-methyl-1-(oxetan-3-yl)-1H-pyrazol-4-yl)-7H-pyrrolo[2,3-d]pyrimidin-2-amine], the IC50 was at most 100 nM.

In the case of `CCOc1nc(Nc2cnn(C3COC3)c2Cl)nc2[nH]ccc12` [Example E35, N-(5-chloro-1-(oxetan-3-yl)-1H-pyrazol-4-yl)-4-ethoxy-7H-pyrrolo-[2,3-d]pyrimidin-2-amine], the IC50 is at most 100 nM.

Regarding `CCOc1nc(Nc2cnn(C3CCOCC3)c2C)nc2[nH]cc(C#N)c12` [Example E46, 4-ethoxy-2-((5-methyl-1-(tetrahydro-2H-pyran-4-yl)-1H-pyrazol-4-yl)-amino)-7H-pyrrolo-[2,3-d]-pyrimidine-5-carbonitrile], the IC50 was at most 100 nM.

Take `CCOc1nc(Nc2cnn(CCOC)c2C)nc2[nH]cc(C#N)c12` [Example E47, 4-ethoxy-2-((1-(2-methoxyethyl)-5-methyl-1H-pyrazol-4-yl)-amino)-7H-pyrrolo-[2,3-d]-pyrimidine-5-carbonitrile]: the IC50 is at most 100 nM.

Take `CCOc1nc(Nc2cn(CCOC)nc2C)nc2[nH]cc(C#N)c12` [Example E48, 4-ethoxy-2-((1-(2-methoxyethyl)-3-methyl-1H-pyrazol-4-yl)-amino)-7H-pyrrolo-[2,3-d]-pyrimidine-5-carbonitrile]: the IC50 is at most 100 nM.

As for `CCOc1nc(Nc2cnn([C@H]3CCN(C)C3)c2C)nc2[nH]cc(C#N)c12` [Example E49, (S)-4-ethoxy-2-((5-methyl-1-(1-methyl-pyrrolidin-3-yl)-1H-pyrazol-4-yl)-amino)-7H-pyrrolo-[2,3-d]pyrimidine-5-carbonitrile], the IC50 was at most 100 nM.

In the case of `CCOc1nc(Nc2cnn(CCF)c2C)nc2[nH]cc(C#N)c12` [Example E50, 4-ethoxy-2-((1-(2-fluoroethyl)-5-methyl-1H-pyrazol-4-yl)-amino)-7H-pyrrolo-[2,3-d]-pyrimidine-5-carbonitrile], the IC50 is at most 100 nM.

For the compound `CCOc1nc(Nc2cnn([C@@H]3CCN(C)C3)c2C)nc2[nH]cc(C#N)c12` [Example E51, (R)-4-ethoxy-2-((5-methyl-1-(1-methyl-pyrrolidin-3-yl)-1H-pyrazol-4-yl)-amino)-7H-pyrrolo-[2,3-d]pyrimidine-5-carbonitrile], the IC50 was at most 100 nM.

For `CCOc1nc(Nc2cnn(C3CCN(C4COC4)CC3)c2C)nc2[nH]ccc12` [Example E53, 4-ethoxy-N-(5-methyl-1-(1-(oxetan-3-yl)-piperidin-4-yl)-1H-pyrazol-4-yl)-7H-pyrrolo-[2,3-d]-pyrimidin-2-amine], the IC50 is at most 100 nM.

As for `CCOc1nc(Nc2cnn([C@H]3CC[C@@H](O)CC3)c2C)nc2[nH]ccc12` [Example E54, cis-4-(4-((4-ethoxy-7H-pyrrolo[2,3-d]pyrimidin-2-yl)amino)-5-methyl-1H-pyrazol-1-yl)-cyclohexanol], the IC50 is at most 100 nM.

Consider `CCOc1nc(Nc2cnn(CC(C)(C)C#N)c2C)nc2[nH]ccc12` [Example E62, 3-(4-((4-ethoxy-7H-pyrrolo-[2,3-d]pyrimidin-2-yl)amino)-5-methyl-1H-pyrazol-1-yl)-2,2-dimethylpropanenitrile], for which the IC50 was at most 100 nM.

Turning to `CCOc1nc(Nc2cnn(CCN3CC[C@@H](F)C3)c2C)nc2[nH]ccc12` [Example E63, (R)-4-ethoxy-N-(1-(2-(3-fluoropyrrolidin-1-yl)-ethyl)-5-methyl-1H-pyrazol-4-yl)-7H-pyrrolo[2,3-d]pyrimidin-2-amine], the IC50 is at most 100 nM.

Consider `CCOc1nc(Nc2cnn(CCN3CC[C@H](F)C3)c2C)nc2[nH]ccc12` [Example E64, (S)-4-ethoxy-N-(1-(2-(3-fluoropyrrolidin-1-yl)ethyl)-5-methyl-1H-pyrazol-4-yl)-7H-pyrrolo[2,3-d]pyrimidin-2-amine], for which the IC50 was at most 100 nM.

As to `CCOc1nc(Nc2cnn(C(C)(C)CO)c2C)nc2[nH]ccc12` [Example E65, 2-(4-((4-ethoxy-7H-pyrrolo-[2,3-d]pyrimidin-2-yl)amino)-5-methyl-1H-pyrazol-1-yl)-2-methylpropan-1-ol], the IC50 was at most 100 nM.

As for `CCOc1nc(Nc2cnn(C3CCN(C4COC4)C3)c2C)nc2[nH]ccc12` (stereo not shown) [Example E66, 4-Ethoxy-N-(5-methyl-1-(1-(oxetan-3-yl)pyrrolidin-3-yl)-1H-pyrazol-4-yl)-7H-pyrrolo[2,3-d]pyrimidin-2-amine], the IC50 is at most 100 nM.

With `CCOc1nc(Nc2cnn(CCN3CCOC[C@H]3C)c2C)nc2[nH]ccc12` [Example E81, (R)-4-ethoxy-N-(5-methyl-1-(2-(3-methylmorpholino)ethyl)-1H-pyrazol-4-yl)-7H-pyrrolo [2,3-d]pyrimidin-2-amine], the IC50 is at most 100 nM.

`CCOc1nc(Nc2cnn(CCN3CCOC[C@@H]3C)c2C)nc2[nH]ccc12` [Example E82, (S)-4-ethoxy-N-(5-methyl-1-(2-(3-methylmorpholino)ethyl)-1H-pyrazol-4-yl)-7H-pyrrolo [2,3-d]pyrimidin-2-amine]: the IC50 was at most 100 nM.

Consider `CCOc1nc(Nc2cnn(CCN3CCO[C@H](C)C3)c2C)nc2[nH]ccc12` [Example E83, (R)-4-ethoxy-N-(5-methyl-1-(2-(2-methylmorpholino)ethyl)-1H-pyrazol-4-yl)-7H-pyrrolo [2,3-d]pyrimidin-2-amine], for which the IC50 was at most 100 nM.

On to `CCOc1nc(Nc2cnn(CCN3CCO[C@@H](C)C3)c2C)nc2[nH]ccc12` [Example E84, (S)-4-ethoxy-N-(5-methyl-1-(2-(2-methylmorpholino)ethyl)-1H-pyrazol-4-yl)-7H-pyrrolo [2,3-d]pyrimidin-2-amine], for which the IC50 was at most 100 nM.

`CCOc1nc(Nc2cnn([C@@H]3CCN(CC(F)F)C3)c2C)nc2[nH]ccc12` [Example E85, (R)—N-(1-(1-(2,2-difluoroethyl)pyrrolidin-3-yl)-5-methyl-1H-pyrazol-4-yl)-4-ethoxy-7H-pyrrolo[2,3-d]pyrimidin-2-amine]: the IC50 is at most 100 nM.

As to `CCOc1nc(Nc2cnn([C@H]3CCN(CC(F)F)C3)c2C)nc2[nH]ccc12` [Example E87, (S)—N-(1-(1-(2,2-difluoroethyl)pyrrolidin-3-yl)-5-methyl-1H-pyrazol-4-yl)-4-ethoxy-7H-pyrrolo[2,3-d]pyrimidin-2-amine], the IC50 is at most 100 nM.

On to `CCOc1nc(Nc2cnn(CC(C)(C)N3CCOCC3)c2C)nc2[nH]ccc12` [Example E88, 4-ethoxy-N-(5-methyl-1-(2-methyl-2-morpholinopropyl)-1H-pyrazol-4-yl)-7H-pyrrolo[2,3-d]pyrimidin-2-amine], for which the IC50 was at most 100 nM.

In the case of `CCOc1nc(Nc2cnn(C3CC(C)(O)C3)c2C)nc2[nH]ccc12` (stereo not shown) [Example E93, 3-(4-((4-ethoxy-7H-pyrrolo[2,3-d]pyrimidin-2-yl)amino)-5-methyl-1H-pyrazol-1-yl)-1-methylcyclobutanol], the IC50 is at most 100 nM.

With `CCOc1nc(Nc2cnn([C@@H]3CCN[C@@H](C(F)F)C3)c2C)nc2[nH]ccc12` [Example E94, N-(1-((2R,4R)-2-(difluoromethyl)piperidin-4-yl)-5-methyl-1H-pyrazol-4-yl)-4-ethoxy-7H-pyrrolo[2,3-d]pyrimidin-2-amine], the IC50 is at most 100 nM.

For the compound `CCOc1nc(Nc2cnn([C@H]3CCN[C@@H](C(F)F)C3)c2C)nc2[nH]ccc12` [Example E95, N-(1-((2R,4S)-2-(difluoromethyl)piperidin-4-yl)-5-methyl-1H-pyrazol-4-yl)-4-ethoxy-7H-pyrrolo[2,3-d]pyrimidin-2-amine], the IC50 is at most 100 nM.
